Values quoted from earlier work, collected in US5283250A, “Quinolinyl/quinolinylalkyl-N-terminal amino hydroxy” (G. D. Searle & Co., priority 1991, dated 1994).
Square brackets hold non-standard residues; d marks the D form. Peptide text beside a SMILES is read from it. * marks the point of attachment. Sta = CC(C)C[C@H](N)[C@@H](O)CC(=O)O; Isovaleryl = CC(C)CC(=O)*

Legend:
[1] = system: renin; details: Umezawa et al 1970
[2] = system: pepsin; details: Umezawa et al 1970
[3] = system: cathepsin D; details: Umezawa et al 1970
[4] = system: hog renin; details: after injection of hog renin into nephrectomized rats; Gross et al 1971
[5] = system: acid proteases

In the case of `CC(C)CC(=O)N[C@H](C(=O)N[C@H](C(=O)N[C@@H](CC(C)C)[C@@H](O)CC(=O)N[C@@H](C)C(=O)N[C@@H](CC(C)C)[C@@H](O)CC(=O)O)C(C)C)C(C)C` [pepstatin] (Isovaleryl-VV[Sta]A[Sta]-OH), the “inhibition of renin (in words)” value [1] is given as “inhibitor”, the “inhibition of pepsin (in words)” value [2] is given as “inhibitor” and the “inhibition of cathepsin D (in words)” value [3] is given as “inhibitor”. The “blood pressure in vivo (in words)” value [4] was “reduce blood pressure in vivo” and the “inhibition of acid proteases in addition to renin (in words)” value [5] was “inhibiting acid proteases in addition to renin”.
